From BindingDB's records for doi:10.1021/jm3016848 (Ikerchem, 2013)

Assay: Inhibition of LFA-1/ICAM-1 interaction in mouse Lim51b cells assessed as PMA-induced adhesion to ICAM-1 expressing HSE cells measured per 10^5 cells after 30 mins by fluorometric microplate reader analysis

CC[C@H](C)[C@H](OCc1ccccc1)[C@H]1[C@H]([N+](=O)[O-])[C@H](c2ccccc2)N[C@]1(C)C(=O)NCCC(=O)O
IC50: 27.6 µM
